Experimental data published in patent publication US10966911B2, “Melanin decomposition inhibitor” (KAO CORPORATION, priority 2016, dated 2021).

Tests used:
[1] = test system: melanocytes (HEMn-LP, HEMn-DP); assay: Cellular respiratory chain (growth) activity, alamarBlue, melanocyte single culture system; assay type: cell-based, human; settings: melanocytes (lightly and darkly); concentration range of 30 μM or less; 4 days; FIGS. 14C, 14D
Protocol: Melanocytes (lightly and darkly) were seeded in 96-well plates at a cell density of 2×10^4 cells/well (100 μL/well). […] As a control, the same amount of DMSO was added. After completion of culture, the whole medium was replaced (100 μL/well), a reagent, alamarBlue (Bio-Rad AbD Serotec Limited) was added so as to obtain a ratio of 10 μL/well. Incubation was carried out at 37° C. in 5 vol % CO2 atmospheric conditions for one hour. Thereafter, fluorescence intensity of the medium was measured (Ex544 nm/Em590 nm) to evaluate cellular respiratory chain (growth) activity.

human skin tissue [2] = assay: Effect of proguanil on skin color of cultured human skin tissue; assay type: cell-based; settings: proguanil 150, 180, 210, 240, 270 or 300 μM; Day 5; versus DMSO; FIG. 12
Protocol: A normal human skin tissue, which was obtained at the time of surgical operation, was provided by a medical college (department of plastic surgery). The human skin tissue, from which subcutaneous fat was previously trimmed, was cut into small pieces having a size of about 1 cm×1 cm by knife. The small pieces were cultured by using a 6-well plate at 37° C. under a 5 vol % CO2 atmospheric conditions. In the culture, Advanced DMEM medium containing a 10% (v/v) Fetal Bovine Serum (FBS) (Thermo Fisher Scientific, respectively) was used. A human skin tissue was allowed to stand still in a 6-well plate. Proguanil was added in the medium at a final concentration of 150, 180, 210, 240, 270 or 300 μM and then tissue culture was performed. As a control, DMSO was added in the same amount. Medium replacement was carried out every 2 to 3 days. Day 5 after initiation of the culture, the appearance of the skin tissue was observed and photographed.

[3] = test system: keratinocytes and melanocytes; assay: Cellular respiratory chain (growth) activity in keratinocyte-melanocyte co-culture system; assay type: cell-based, human; settings: concentration range of 30 μM or less, 4 days, FIGS. 16C, 16D
human skin tissue [4] = assay: HE staining of skin tissue cultured with proguanil (tissue damage); assay type: cell-based; settings: proguanil 180 μM; 5 days; FIG. 13 lower stage
Protocol: The human skin tissue, from which subcutaneous fat was previously trimmed, was cut into small pieces having a size of about 1 cm×1 cm by knife. The small pieces were cultured by using a 6-well plate at 37° C. under a 5 vol % CO2 atmospheric conditions. In the culture, Advanced DMEM medium containing a 10% (v/v) Fetal Bovine Serum (FBS) (Thermo Fisher Scientific, respectively) was used. […] More specifically, the skin tissue was embedded in paraffin and the resultant paraffine block was sliced to prepare paraffin sections of 5 μm in thickness. A Fontana ammonia silver solution (manufactured by MUTO PURE CHEMICALS Co., Ltd.) was allowed to react at room temperature for two hours to visually distinguish melanin granules. Thereafter, nuclear staining was performed using Kernechtrot solution (manufactured by MUTO PURE CHEMICALS Co., Ltd.). […] At the same time, HE staining was carried out.

[5] = test system: dopa oxidase activity of melanocytes; assay: Dopa oxidase activity of melanocytes in melanocyte single culture system; assay type: cell-based, human; settings: melanocytes (lightly and darkly); proguanil 0.1-1000 μM; 4 days; versus DMSO; FIGS. 14A, 14B
Protocol: Normal human neonatal foreskin-derived epidermal melanocytes (Human Epidermal Melanocytes, neonatal, lightly pigmented donor (HEMn-LP) and Human Epidermal Melanocytes, neonatal, darkly pigmented donor (HEMn-DP); melanocytes (lightly) and melanocytes (darkly)), a growth medium for epidermal melanocytes (Medium254) and a growth additive (HMGS) for the medium were purchased from Thermo Fisher Scientific. Melanocytes were cultured at 37° C. in 5 vol % CO2 atmospheric conditions.
Melanocytes (lightly and darkly) were seeded in 96-well plates at a cell density of 2×10^4 cells/well (100 μL/well). […] Thereafter, fluorescence intensity of the medium was measured (Ex544 nm/Em590 nm) to evaluate cellular respiratory chain (growth) activity. […] The cells were lysed at 4° C. over 2 hours and dopa oxidase activity was measured. The activity measurement was performed by the following method based on the […] method (Winder A. et al., 1991, Eur. J. Biochem. 198: 317-326): to individual wells containing a cell lysate, the Assay Buffer (80 μL) as mentioned above, an aqueous 20.7 mM MBTH (3-methyl-2-benzothiazolinone hydrazone) solution (60 μL) and an aqueous 5 mM L-DOPA (L-dihydroxyphenylalanine) (40 μL) solution serving as a substrate were added, a reaction was performed at 37° C. for 30 minutes and the absorbance at a wavelength of 505 nm was measured.

- dopa oxidase activity [5]: did not accelerate dopa oxidase activity
Structure (SMILES): [H]/N=C(\N/C(=N/[H])Nc1ccc(Cl)cc1)NC(C)C [proguanil, 1-(p-chlorophenyl)-5-isopropyl biguanide]
- cell toxicity (cellular respiratory chain activity) [1]: cell toxicity was not observed
- darkening of the skin color (human skin tissue [2]): induces darkening of the skin color in a dose-dependent manner
- cell toxicity (cellular respiratory chain activity) [3]: cell toxicity was not observed
- tissue damage (HE staining) (human skin tissue [4]): no damage was induced in the tissue
